Experimental data as given in patent US6906198B1, “Antipicornaviral compounds, their preparation and use” (Agouron Pharmaceuticals, Inc., priority 1998, dated 2005).
Where two headings read alike, the source gives them in different places.

Key:
HRV serotype 13 = experiment: Antirhinoviral H1-HeLa cell culture assay (XTT), HRV-13; type: cell-based; settings: Human rhinovirus sp., H1-HeLa cells
Procedure: (§1) Antirhinoviral H1-HeLa Cell Culture Assay
(§2) In this cell protection assay, the ability of compounds to protect cells against HRV infection was measured by the XTT dye reduction method, which is described in Weislow et al., J. Natl. Cancer Inst. 1989, vol. 81, 577-586.
(§3) H1-HeLa cells were infected with HRV-14 at a multiplicity of infection (m.o.i.) of 0.13 (virus particles/cell) or mock-infected with medium only. Infected or mock-infected cells were resuspended at 8×10^5 cells per mL, and incubated with appropriate concentrations of the compounds to be tested. Two days later, XTT/PMS was added to test plates and the amount of formazan produced was quantified spectrophotometrically at 450/650 nm. The EC50 value was calculated as the concentration of compound that increased the percentage of formazan production in compound-treated, virus-infected cells to 50% of that produced by compound-free, mock-infected cells. The 50% cytotoxic dose (CC50) was calculated as the concentration of compound that decreased the percentage of formazan produced in compound-treated, mock-infected cells to 50% of that produced by compound-free, mock-infected cells. The therapeutic index (TI) was calculated by dividing the CC50 value by the EC50 value. […]

HRV serotype 3 = experiment: Antirhinoviral H1-HeLa cell culture assay (XTT), HRV-3; type: cell-based; settings: Human rhinovirus sp., H1-HeLa cells
Procedure: as §1, §2, §3

HRV serotype 30 = experiment: Antirhinoviral H1-HeLa cell culture assay (XTT), HRV-30; type: cell-based; settings: Human rhinovirus sp., H1-HeLa cells
Procedure: as §1, §2, §3

HRV serotype 89 = experiment: Antirhinoviral H1-HeLa cell culture assay (XTT), HRV-89; type: cell-based; settings: Human rhinovirus sp., H1-HeLa cells
Procedure: as §1, §2, §3

[1] = Cytotoxicity in uninfected MRC-5 cells (anti-echoviral/-enteroviral assay, XTT); type: cell-based; settings: human, 50% cytotoxic dose
Procedure: (§4) Echovirus type 11 (EV 11) and enterovirus type 70 (EV 70) were purchased from ATCC (Rockville, Md.). Virus stocks were propagated and antiviral assays were performed in MRC-5 cells (ATCC). Cells were grown in minimal essential medium with 10% fetal bovine serum (Life Technologies, Gaithersburg, Md.).
(§5) The ability of compounds to protect cells against either EV 11 or EV 70 infection was measured by the XTT dye reduction method (Weislow et al., J. Natl. Cancer Inst. 1989, vol. 81, 577-586). MRC-5 cells were infected with EV 11 or EV 70 at an m.o.i. of 0.003 or 0.004, respectively, or mock-infected with medium only. Infected or uninfected cells were added at 1×10^4 cells per well and incubated with appropriate concentrations of compound. Four days later, XTT/PMS was added to test plates, and the amount of formazan produced was quantified spectrophotometrically at 450/650 nm. The EC50 was calculated as the concentration of compound that increased the formazan production in compound-treated, virus-infected cells to 50% of that produced by compound-free, uninfected cells. The 50% cytotoxic dose (CC50) was calculated as the concentration of compound that decreased formazan production in compound-treated, uninfected cells to 50% of that produced in compound-free, uninfected cells. The therapeutic index (TI) was calculated by dividing the CC50 by the EC50.

HRV serotype 87 = experiment: Antirhinoviral H1-HeLa cell culture assay (XTT), HRV-87; type: cell-based; settings: Human rhinovirus sp., H1-HeLa cells
Procedure: as §1, §2, §3

HRV serotype 9 = experiment: Antirhinoviral H1-HeLa cell culture assay (XTT), HRV-9; type: cell-based; settings: Human rhinovirus sp., H1-HeLa cells
Procedure: as §1, §2, §3

HRV serotype 38 = experiment: Antirhinoviral H1-HeLa cell culture assay (XTT), HRV-38; type: cell-based; settings: Human rhinovirus sp., H1-HeLa cells
Procedure: as §1, §2, §3

HRV serotype 39 = experiment: Antirhinoviral H1-HeLa cell culture assay (XTT), HRV-39; type: cell-based; settings: Human rhinovirus sp., H1-HeLa cells
Procedure: as §1, §2, §3

HRV serotype 16 = experiment: Antirhinoviral H1-HeLa cell culture assay (XTT), HRV-16; type: cell-based; settings: Human rhinovirus sp., H1-HeLa cells
Procedure: as §1, §2, §3

HRV serotype 2 = experiment: Antirhinoviral H1-HeLa cell culture assay (XTT), HRV-2; type: cell-based; settings: Human rhinovirus sp., H1-HeLa cells
Procedure: as §1, §2, §3

HRV-14 = experiment: Antirhinoviral H1-HeLa cell culture assay (XTT), HRV-14; type: cell-based, human rhinovirus; settings: Rhinovirus B, HRV14
Procedure: as §1, §2
(§6) H1-HeLa cells were infected with HRV-14 at a multiplicity of infection (m.o.i.) of 0.13 (virus particles/cell) or mock-infected with medium only. Infected or mock-infected cells were resuspended at 8×10^5 cells per mL, and incubated with appropriate concentrations of the compounds to be tested. Two days later, XTT/PMS was added to test plates and the amount of formazan produced was quantified spectrophotometrically at 450/650 nm. The EC50 value was calculated as the concentration of compound that increased the percentage of formazan production in compound-treated, virus-infected cells to 50% of that produced by compound-free, mock-infected cells. The 50% cytotoxic dose (CC50) was calculated as the concentration of compound that decreased the percentage of formazan produced in compound-treated, mock-infected cells to 50% of that produced by compound-free, mock-infected cells. The therapeutic index (TI) was calculated by dividing the CC50 value by the EC50 value.
(§7) All strains of human rhinovirus (HRV) for use in this assay were purchased from American Type Culture Collection (ATCC), except for HRV serotype-14 (produced from the infectious cDNA clone constructed by Dr. Robert Rueckert, Institute for Molecular Virology, University of Wisconsin, Madison, Wis.). HRV stocks were propagated and viral assays were performed in H1-HeLa cells (ATCC). Cells were grown in minimal essential medium with 10% fetal bovine serum, available from Life Technologies (Gaithersburg, Md.).
The compounds were tested against control compounds WIN 51711, WIN 52084, and WIN 54954 (obtained from Sterling-Winthrop Pharmaceuticals), Pirodavir (obtained from Janssen Pharmaceuticals), and Pleconaril (prepared according to the method described in Diana et al., J. Med. Chem 1995, vol. 38, 1355). Antiviral data obtained for the test compounds are shown in Tables 1 and 3, where all data are for HRV serotype-14 unless otherwise noted in parentheses.

HRV serotype 10 = experiment: Antirhinoviral H1-HeLa cell culture assay (XTT), HRV-10; type: cell-based, human rhinovirus; settings: Human rhinovirus sp., H1-HeLa cells
Procedure: as §1, §2, §6, §7
(§8) The compounds were tested against control compounds WIN 51711, WIN 52084, and WIN 54954 (obtained from Sterling-Winthrop Pharmaceuticals), Pirodavir (obtained from Janssen Pharmaceuticals), and Pleconaril (prepared according to the method described in Diana et al., J. Med. Chem 1995, vol. 38, 1355). […]

[2] = Cytotoxicity in mock-infected H1-HeLa cells (antirhinoviral assay, XTT); type: cell-based; settings: human, 50% cytotoxic dose
Procedure: as §6, §7

[3] = tested on: Coxsackievirus type B3 (CVB-3); experiment: Anticoxsackieviral cell culture assay (XTT), CVB-3; type: cell-based; settings: Coxsackievirus, H1-HeLa
Procedure: (§9) Anticoxsackieviral Cell Culture Assay
(§10) Coxsackievirus types A-21 (CAV-21) and B3 (CVB-3) were purchased from American Type Culture Collection (ATCC, Rockville, Md.). Virus stocks were propagated and antiviral assays were performed in H1-HeLa cells (ATCC). Cells were grown in minimal essential medium with 10% fetal bovine serum (Life Technologies, Gaithersburg, Md.).
(§11) The ability of compounds to protect cells against either CAV-21 or CVB-3 infection was measured by the XTT dye reduction method. This method is described in Weislow et al., J. Natl. Cancer Inst. 1989, vol. 81, 577-586. H1-HeLa cells were infected with CAV-21 or CVB-3 at a multiplicity of infection (m.o.i.) of 0.025 or 0.075, respectively, or mock-infected with medium only. H1-HeLa cells were plated at 4×10^4 cells per well in a 96-well plate and incubated with appropriate concentrations of the test compound. One day (CVB-3) or two days (CAV-21) later, XTT/PMS was added to test plates and the amount of formazan produced was quantified spectrophotometrically at 450/650 nm. The EC50 was calculated as the concentration of compound that increased the formazan production in compound-treated, virus-infected cells to 50% of that produced by compound-free, uninfected cells. […] The therapeutic index (TI) was calculated by dividing the CC50 by the EC50. […]

[4] = tested on: enterovirus type 70 (EV 70); experiment: Anti-enteroviral cell culture assay (XTT), EV 70; type: cell-based; settings: Enterovirus D, MRC5
Procedure: (§12) Anti-Echoviral and -Enteroviral Cell Culture Assays
as §4
as §5, with “The 50% cytotoxic dose (CC50) was calculated as the concentration of compound that decreased formazan production in compound-treated, uninfected cells to 50% of that produced in compound-free, uninfected cells.” left out, “EC50. […]” for “EC50.”

HRV serotype 1A = experiment: Antirhinoviral H1-HeLa cell culture assay (XTT), HRV-1A; type: cell-based, human rhinovirus; settings: Human rhinovirus sp., H1-HeLa cells
Procedure: as §1, §2, §6, §7, §8

[5] = tested on: Echovirus type 11 (EV 11); experiment: Anti-echoviral cell culture assay (XTT), EV 11; type: cell-based; settings: Enterovirus B, MRC5
Procedure: as §12, §4
as §5, with “The 50% cytotoxic dose (CC50) was calculated as the concentration of compound that decreased formazan production in compound-treated, uninfected cells to 50% of that produced in compound-free, uninfected cells.” left out, “EC50. […]” for “EC50.”

[6] = tested on: Coxsackievirus type A-21 (CAV-21); experiment: Anticoxsackieviral cell culture assay (XTT), CAV-21; type: cell-based; settings: Coxsackievirus, H1-HeLa
Procedure: as §9, §10, §11

HRV serotype 12 = experiment: Antirhinoviral H1-HeLa cell culture assay (XTT), HRV-12; type: cell-based; settings: Human rhinovirus sp., H1-HeLa cells
Procedure: as §1, §2, §3

HRV serotype 17 = experiment: Antirhinoviral H1-HeLa cell culture assay (XTT), HRV-17; type: cell-based; settings: Human rhinovirus sp., H1-HeLa cells
Procedure: as §1, §2, §3

HRV serotype 25 = experiment: Antirhinoviral H1-HeLa cell culture assay (XTT), HRV-25; type: cell-based; settings: Human rhinovirus sp., H1-HeLa cells
Procedure: as §1, §2, §3

[7] = Cytotoxicity in uninfected H1-HeLa cells (anticoxsackieviral assay, XTT); type: cell-based; settings: human; 50% cytotoxic dose, uninfected H1-HeLa cells (Table 4)
Procedure: as §10
The ability of compounds to protect cells against either CAV-21 or CVB-3 infection was measured by the XTT dye reduction method. This method is described in Weislow et al., J. Natl. Cancer Inst. 1989, vol. 81, 577-586. H1-HeLa cells were infected with CAV-21 or CVB-3 at a multiplicity of infection (m.o.i.) of 0.025 or 0.075, respectively, or mock-infected with medium only. H1-HeLa cells were plated at 4×10^4 cells per well in a 96-well plate and incubated with appropriate concentrations of the test compound. One day (CVB-3) or two days (CAV-21) later, XTT/PMS was added to test plates and the amount of formazan produced was quantified spectrophotometrically at 450/650 nm. The EC50 was calculated as the concentration of compound that increased the formazan production in compound-treated, virus-infected cells to 50% of that produced by compound-free, uninfected cells. The 50% cytotoxic dose (CC50) was calculated as the concentration of compound that decreased formazan production in compound-treated, uninfected cells to 50% of that produced in compound-free, uninfected cells. The therapeutic index (TI) was calculated by dividing the CC50 by the EC50.

With `CCOC(=O)/C=C/[C@H](C[C@@H]1CCNC1=O)NC(=O)[C@H](Cc1ccc(F)cc1)NC(=O)[C@@H](NC(=O)c1cc(C)on1)C(C)C` [(A-5), Ethyl-3-{(5′-Methylisoxazole-3′-carbonyl)-L-Val-L-(4-F-Phe)-L-((S)-Pyrrol-Ala)}-E-Propenoate] the EC50 (HRV serotype 13) was 20 nM, the EC50 (HRV serotype 3) was 50 nM and the EC50 (HRV serotype 30) was 60 nM. The EC50 (HRV serotype 89) was 20 nM, the CC50 at 4 days [1] was over 10000 nM and the EC50 (HRV serotype 87) was 210 nM. The EC50 (HRV serotype 9) was 40 nM, the EC50 (HRV serotype 38) was 130 nM and the EC50 (HRV serotype 39) was 20 nM. For the same compound, the EC50 (HRV serotype 16) was 20 nM, the EC50 (HRV serotype 2) was 10 nM and the EC50 (HRV-14; HRV serotype-14, H1-HeLa cells (Table 1), read-out: Cell Protection EC50) was 5 nM. The EC50 (HRV-14; HRV serotype-14, H1-HeLa cells (Table 3), read-out: EC50) was 5 nM, the melting point was 219 to 220 °C and the EC50 (HRV serotype 10) was 50 nM. It also gave a CC50 at 2 days [2] of over 10000 nM, an EC50 [3] of 1000 nM and an EC50 [4] of 40 nM. It also gave an EC50 (HRV serotype 1A) of 30 nM, an EC50 [5] of 80 nM and an EC50 [6] of 230 nM. It also gave an EC50 (HRV serotype 12) of 60 nM, an EC50 (HRV serotype 17) of 20 nM and an EC50 (HRV serotype 25) of 180 nM. It also gave a CC50 [7] of over 10000 nM.

With `CCOC(=O)/C=C/[C@H](C[C@@H]1CCNC1=O)NC(=O)[C@H](Cc1ccc(F)cc1)NC(=O)[C@@H](NC(=O)c1cc(C)on1)C(C)(C)C` [(A-7), Ethyl-3-{(5′-Methylisoxazole-3′-carbonyl)-L-α-(t-Butyl-Gly)-L-(4-F-Phe)-L-((S)-Pyrrol-Ala)}-E-Propenoate] the EC50 (HRV serotype 30) was 90 nM, the EC50 (HRV serotype 87) was 590 nM and the EC50 (HRV serotype 38) was 170 nM. For the same compound, the CC50 at 2 days [2] was over 10000 nM, the EC50 (HRV serotype 12) was 70 nM and the EC50 (HRV serotype 25) was 200 nM.
